From article PMC8213057, “Targeting ALK2: An Open Science Approach to Developing Therapeutics for the Treatment of Diffuse Intrinsic Pontine Glioma” (Journal of Medicinal Chemistry, 2020)

Tests used:
EPHB2 = molecular target: T1, EPHB2 (Homo sapiens, UniProt P29323); experiment: biochemical; conditions: read-out: % enzyme activity, 1 μM; Run 1, Run 2
T1 sequence (P29323 19-1055): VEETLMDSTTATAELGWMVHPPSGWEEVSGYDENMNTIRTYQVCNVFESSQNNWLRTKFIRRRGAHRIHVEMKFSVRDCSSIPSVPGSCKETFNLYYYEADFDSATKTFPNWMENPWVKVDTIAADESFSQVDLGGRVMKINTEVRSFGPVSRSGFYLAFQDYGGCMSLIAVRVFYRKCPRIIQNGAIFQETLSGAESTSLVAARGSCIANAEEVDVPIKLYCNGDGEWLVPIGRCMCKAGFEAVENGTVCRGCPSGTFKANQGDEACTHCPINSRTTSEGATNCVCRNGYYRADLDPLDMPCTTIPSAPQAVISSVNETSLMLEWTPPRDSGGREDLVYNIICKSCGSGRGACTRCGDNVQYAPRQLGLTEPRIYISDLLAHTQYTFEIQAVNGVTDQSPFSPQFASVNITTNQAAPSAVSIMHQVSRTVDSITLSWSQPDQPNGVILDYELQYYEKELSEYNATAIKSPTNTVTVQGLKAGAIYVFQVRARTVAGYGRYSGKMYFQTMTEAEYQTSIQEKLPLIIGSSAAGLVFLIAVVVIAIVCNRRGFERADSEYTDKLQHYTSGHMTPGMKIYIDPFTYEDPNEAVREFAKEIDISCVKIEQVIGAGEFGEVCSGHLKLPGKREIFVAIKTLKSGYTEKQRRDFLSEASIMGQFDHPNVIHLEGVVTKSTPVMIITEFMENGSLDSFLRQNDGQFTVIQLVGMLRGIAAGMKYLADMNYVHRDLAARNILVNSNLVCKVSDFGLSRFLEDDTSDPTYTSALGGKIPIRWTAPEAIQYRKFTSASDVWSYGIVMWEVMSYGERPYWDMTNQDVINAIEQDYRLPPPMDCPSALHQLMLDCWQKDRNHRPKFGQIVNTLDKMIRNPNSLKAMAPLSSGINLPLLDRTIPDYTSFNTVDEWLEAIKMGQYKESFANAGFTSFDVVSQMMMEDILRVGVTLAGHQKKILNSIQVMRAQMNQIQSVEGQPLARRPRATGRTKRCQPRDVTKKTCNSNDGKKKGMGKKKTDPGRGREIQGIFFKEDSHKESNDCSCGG

RON/MST1R = RON/MST1R (Homo sapiens, UniProt Q04912); experiment: biochemical; conditions: read-out: % enzyme activity, 1 μM; Run 1, Run 2
ACK1 = ACK1 (Homo sapiens, UniProt Q07912); conditions: 1 μM; Run 1, Run 2
PASK = PASK (Homo sapiens, UniProt Q96RG2); experiment: biochemical; conditions: read-out: % enzyme activity, 1 μM; Run 1, Run 2
NEK9 = molecular target: T2, NEK9 (Homo sapiens, UniProt Q8TD19); conditions: 1 μM; Run 1, Run 2
T2 sequence (Q8TD19 1-979): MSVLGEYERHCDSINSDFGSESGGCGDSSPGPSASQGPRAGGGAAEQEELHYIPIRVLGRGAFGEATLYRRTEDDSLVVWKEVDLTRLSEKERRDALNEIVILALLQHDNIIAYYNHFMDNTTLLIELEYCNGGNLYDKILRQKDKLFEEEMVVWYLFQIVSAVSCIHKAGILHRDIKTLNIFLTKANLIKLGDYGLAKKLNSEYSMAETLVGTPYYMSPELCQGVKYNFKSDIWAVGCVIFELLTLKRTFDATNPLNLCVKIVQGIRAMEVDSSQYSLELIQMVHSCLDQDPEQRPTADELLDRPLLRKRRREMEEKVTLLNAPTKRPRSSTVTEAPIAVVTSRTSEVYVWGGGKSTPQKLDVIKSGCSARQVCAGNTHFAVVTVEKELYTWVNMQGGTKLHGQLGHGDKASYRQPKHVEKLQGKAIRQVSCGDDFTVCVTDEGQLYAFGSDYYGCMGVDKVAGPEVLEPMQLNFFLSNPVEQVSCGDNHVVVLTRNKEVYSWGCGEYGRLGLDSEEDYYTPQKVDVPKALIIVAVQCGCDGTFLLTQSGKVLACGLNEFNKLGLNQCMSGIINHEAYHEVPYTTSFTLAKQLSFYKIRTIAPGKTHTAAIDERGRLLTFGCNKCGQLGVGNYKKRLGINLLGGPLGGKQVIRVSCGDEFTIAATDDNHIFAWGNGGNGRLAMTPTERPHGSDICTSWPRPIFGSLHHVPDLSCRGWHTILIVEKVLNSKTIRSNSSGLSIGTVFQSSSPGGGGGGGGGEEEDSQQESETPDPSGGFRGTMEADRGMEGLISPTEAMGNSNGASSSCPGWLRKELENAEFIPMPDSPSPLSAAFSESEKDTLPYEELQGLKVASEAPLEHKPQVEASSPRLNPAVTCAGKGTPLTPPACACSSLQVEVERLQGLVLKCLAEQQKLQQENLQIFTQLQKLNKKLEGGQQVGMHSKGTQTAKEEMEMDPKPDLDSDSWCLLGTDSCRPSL

ABL1 = ABL1 (Homo sapiens, UniProt P00519); experiment: biochemical; conditions: read-out: % enzyme activity, 1 μM; Run 1, Run 2
CDK5/p35 = CDK5/p35 (Homo sapiens, UniProt Q00535); experiment: biochemical; conditions: read-out: % enzyme activity, 1 μM; Run 1, Run 2
CHK2 = CHK2 (Homo sapiens, UniProt O96017); experiment: biochemical; conditions: read-out: % enzyme activity, 1 μM; Run 1, Run 2
SGK2 = SGK2 (Homo sapiens, UniProt Q9HBY8); conditions: 1 μM; Run 1, Run 2
TXK = molecular target: T3, TXK (Homo sapiens, UniProt P42681); experiment: biochemical; conditions: read-out: % enzyme activity, 1 μM; Run 1, Run 2
T3 sequence (P42681 1-527): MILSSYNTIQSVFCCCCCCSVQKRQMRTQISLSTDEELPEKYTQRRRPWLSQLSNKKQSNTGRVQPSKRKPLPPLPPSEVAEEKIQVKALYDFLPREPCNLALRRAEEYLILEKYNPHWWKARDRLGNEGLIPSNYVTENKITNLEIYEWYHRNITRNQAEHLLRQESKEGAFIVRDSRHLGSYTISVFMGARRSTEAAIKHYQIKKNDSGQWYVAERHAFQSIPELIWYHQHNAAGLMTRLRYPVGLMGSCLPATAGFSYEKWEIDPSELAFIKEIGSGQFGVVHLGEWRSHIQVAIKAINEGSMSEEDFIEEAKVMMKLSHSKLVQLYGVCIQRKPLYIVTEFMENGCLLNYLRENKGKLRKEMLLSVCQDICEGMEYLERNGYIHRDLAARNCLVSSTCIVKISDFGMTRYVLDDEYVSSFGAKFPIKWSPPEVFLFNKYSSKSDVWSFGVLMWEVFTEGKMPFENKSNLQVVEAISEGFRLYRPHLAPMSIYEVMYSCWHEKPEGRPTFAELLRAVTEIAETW

Chain of ABL1 (P00519 whole entry): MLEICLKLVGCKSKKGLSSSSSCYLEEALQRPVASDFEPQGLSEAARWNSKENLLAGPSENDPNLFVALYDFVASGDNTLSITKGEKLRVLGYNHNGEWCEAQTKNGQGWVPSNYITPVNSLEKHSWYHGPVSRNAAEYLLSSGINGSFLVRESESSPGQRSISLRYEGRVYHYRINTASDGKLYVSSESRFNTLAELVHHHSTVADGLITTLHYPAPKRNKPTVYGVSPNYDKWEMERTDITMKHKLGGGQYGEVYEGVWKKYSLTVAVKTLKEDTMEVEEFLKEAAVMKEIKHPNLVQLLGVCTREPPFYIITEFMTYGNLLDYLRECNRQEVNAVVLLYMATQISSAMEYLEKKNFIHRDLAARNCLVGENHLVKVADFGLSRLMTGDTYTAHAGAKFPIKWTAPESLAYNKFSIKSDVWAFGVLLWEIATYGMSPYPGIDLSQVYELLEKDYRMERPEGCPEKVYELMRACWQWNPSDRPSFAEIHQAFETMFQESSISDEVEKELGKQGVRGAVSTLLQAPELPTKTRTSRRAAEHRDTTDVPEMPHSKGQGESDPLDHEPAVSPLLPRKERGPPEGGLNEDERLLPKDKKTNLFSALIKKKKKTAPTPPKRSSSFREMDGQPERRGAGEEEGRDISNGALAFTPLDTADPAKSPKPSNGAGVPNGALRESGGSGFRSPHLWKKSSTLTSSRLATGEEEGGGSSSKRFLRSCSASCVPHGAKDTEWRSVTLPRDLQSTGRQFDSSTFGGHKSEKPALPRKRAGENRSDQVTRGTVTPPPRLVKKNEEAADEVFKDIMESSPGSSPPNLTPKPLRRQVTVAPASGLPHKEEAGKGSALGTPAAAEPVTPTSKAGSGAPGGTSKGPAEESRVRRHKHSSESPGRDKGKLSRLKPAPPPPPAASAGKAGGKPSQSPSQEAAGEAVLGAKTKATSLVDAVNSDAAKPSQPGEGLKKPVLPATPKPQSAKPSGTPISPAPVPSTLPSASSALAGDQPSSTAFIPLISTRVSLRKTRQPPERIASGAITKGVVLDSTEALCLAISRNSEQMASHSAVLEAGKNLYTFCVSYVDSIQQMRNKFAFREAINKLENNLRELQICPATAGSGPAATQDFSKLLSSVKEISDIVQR
Chain of CHK2 (O96017 whole entry): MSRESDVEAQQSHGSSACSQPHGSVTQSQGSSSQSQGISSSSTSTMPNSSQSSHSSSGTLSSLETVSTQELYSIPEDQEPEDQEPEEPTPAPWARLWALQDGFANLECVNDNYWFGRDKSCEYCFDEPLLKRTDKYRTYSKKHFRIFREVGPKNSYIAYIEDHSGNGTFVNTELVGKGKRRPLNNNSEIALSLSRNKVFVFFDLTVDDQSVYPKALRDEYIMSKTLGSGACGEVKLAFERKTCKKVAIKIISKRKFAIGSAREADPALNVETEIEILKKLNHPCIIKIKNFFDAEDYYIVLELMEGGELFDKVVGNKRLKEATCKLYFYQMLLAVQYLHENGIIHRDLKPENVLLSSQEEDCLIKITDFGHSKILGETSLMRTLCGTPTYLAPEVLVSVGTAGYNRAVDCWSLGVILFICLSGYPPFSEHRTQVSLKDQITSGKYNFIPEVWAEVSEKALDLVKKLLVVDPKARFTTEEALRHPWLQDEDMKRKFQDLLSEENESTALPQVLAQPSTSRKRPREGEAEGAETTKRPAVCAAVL
Chain of SGK2 (Q9HBY8 whole entry): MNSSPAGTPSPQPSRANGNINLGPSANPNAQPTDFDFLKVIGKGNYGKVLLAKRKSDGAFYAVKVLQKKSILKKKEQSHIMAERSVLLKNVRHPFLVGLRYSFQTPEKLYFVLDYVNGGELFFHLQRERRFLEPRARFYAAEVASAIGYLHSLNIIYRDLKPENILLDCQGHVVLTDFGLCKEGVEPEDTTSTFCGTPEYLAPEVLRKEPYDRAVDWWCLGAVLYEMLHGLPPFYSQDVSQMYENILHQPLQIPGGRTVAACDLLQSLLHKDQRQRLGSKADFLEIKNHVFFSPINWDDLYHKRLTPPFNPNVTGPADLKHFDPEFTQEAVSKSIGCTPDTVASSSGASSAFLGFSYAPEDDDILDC
Chain of CDK5/p35 (Q00535 whole entry): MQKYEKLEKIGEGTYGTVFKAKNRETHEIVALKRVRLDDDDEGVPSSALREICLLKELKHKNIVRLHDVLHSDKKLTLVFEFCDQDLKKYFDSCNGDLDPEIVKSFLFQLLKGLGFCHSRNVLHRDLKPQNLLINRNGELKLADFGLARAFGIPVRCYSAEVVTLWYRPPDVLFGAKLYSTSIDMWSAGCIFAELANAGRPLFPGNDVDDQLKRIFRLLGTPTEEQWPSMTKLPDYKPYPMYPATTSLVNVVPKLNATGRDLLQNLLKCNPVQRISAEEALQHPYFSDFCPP
Chain of CDK5/p35 (Q15078 whole entry partner): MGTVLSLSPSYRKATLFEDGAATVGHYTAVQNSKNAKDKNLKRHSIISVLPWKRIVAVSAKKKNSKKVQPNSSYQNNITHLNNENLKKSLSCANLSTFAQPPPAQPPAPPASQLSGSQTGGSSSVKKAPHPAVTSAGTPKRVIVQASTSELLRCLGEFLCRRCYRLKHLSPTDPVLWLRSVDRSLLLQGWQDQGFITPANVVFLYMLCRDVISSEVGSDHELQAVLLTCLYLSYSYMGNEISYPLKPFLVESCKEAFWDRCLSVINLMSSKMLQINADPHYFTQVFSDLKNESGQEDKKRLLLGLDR
Chain of PASK (Q96RG2 whole entry): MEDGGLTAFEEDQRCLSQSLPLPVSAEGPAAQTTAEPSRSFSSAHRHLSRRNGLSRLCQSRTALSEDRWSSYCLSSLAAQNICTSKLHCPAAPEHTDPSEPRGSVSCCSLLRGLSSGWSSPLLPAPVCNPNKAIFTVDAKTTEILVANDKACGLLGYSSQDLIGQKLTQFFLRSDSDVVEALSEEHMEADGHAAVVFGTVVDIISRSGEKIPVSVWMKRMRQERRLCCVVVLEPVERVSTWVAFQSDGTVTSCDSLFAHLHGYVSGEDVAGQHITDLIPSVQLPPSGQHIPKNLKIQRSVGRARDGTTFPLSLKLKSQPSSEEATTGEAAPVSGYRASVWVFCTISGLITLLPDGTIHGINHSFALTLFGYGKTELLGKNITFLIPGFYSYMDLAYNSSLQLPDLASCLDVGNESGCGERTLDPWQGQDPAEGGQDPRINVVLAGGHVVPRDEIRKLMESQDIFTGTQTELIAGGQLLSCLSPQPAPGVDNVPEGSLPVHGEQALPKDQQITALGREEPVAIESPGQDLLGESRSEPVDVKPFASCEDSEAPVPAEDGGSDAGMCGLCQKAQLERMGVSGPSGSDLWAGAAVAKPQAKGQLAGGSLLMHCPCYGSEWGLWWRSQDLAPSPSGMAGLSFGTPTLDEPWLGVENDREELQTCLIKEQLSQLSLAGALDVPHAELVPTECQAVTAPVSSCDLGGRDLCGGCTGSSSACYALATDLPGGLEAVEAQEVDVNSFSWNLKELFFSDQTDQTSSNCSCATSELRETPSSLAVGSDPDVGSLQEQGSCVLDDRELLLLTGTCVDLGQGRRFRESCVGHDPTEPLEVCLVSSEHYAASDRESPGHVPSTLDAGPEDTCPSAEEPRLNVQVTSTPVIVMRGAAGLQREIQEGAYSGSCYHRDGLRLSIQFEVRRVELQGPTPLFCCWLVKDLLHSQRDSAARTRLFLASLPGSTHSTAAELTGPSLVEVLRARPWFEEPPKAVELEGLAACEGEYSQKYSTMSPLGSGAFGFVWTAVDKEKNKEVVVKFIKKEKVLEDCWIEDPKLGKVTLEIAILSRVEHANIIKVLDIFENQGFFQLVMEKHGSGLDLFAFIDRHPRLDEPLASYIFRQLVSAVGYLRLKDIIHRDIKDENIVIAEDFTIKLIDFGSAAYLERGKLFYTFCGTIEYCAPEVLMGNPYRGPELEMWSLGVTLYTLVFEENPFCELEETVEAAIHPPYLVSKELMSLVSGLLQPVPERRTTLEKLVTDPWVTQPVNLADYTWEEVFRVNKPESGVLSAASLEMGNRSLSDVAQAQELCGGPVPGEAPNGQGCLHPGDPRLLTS
Chain of ACK1 (Q07912 whole entry): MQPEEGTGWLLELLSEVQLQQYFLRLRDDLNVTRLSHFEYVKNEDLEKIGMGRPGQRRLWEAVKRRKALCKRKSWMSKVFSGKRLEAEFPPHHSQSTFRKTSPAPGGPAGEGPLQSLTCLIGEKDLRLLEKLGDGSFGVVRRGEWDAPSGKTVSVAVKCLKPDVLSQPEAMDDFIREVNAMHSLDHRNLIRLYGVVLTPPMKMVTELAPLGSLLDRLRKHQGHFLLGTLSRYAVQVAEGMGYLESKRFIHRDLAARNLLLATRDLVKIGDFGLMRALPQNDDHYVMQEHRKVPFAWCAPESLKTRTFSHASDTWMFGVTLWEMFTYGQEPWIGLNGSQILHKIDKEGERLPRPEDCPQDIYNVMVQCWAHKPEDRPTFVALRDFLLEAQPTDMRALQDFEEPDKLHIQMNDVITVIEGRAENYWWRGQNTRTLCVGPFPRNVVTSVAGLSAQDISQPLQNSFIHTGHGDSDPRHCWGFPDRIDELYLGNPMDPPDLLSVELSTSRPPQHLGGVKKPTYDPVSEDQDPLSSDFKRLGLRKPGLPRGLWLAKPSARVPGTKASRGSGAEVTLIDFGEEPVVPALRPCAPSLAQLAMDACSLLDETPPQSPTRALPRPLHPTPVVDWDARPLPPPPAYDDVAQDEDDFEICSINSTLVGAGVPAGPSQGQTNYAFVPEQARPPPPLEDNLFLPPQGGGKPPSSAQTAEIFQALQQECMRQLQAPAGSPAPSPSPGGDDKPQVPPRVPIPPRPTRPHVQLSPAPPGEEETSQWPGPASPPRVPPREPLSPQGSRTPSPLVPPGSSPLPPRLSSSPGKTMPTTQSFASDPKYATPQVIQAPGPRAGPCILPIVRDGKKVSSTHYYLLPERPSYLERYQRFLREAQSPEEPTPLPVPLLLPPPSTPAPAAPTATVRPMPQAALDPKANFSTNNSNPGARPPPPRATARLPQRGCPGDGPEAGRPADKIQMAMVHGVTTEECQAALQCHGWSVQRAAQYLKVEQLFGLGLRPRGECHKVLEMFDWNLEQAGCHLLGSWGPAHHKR

Row | Compound | remaining activity at 1 µM (EPHB2) | remaining activity at 1 µM (RON/MST1R) | % enzyme activity (ACK1) | remaining activity at 1 µM (PASK) | % enzyme activity (NEK9) | remaining activity at 1 µM (ABL1) | remaining activity at 1 µM (CDK5/p35) | remaining activity at 1 µM (CHK2) | % enzyme activity (SGK2) | remaining activity at 1 µM (TXK)
1 | COc1cc(-c2cncc(-c3ccc(N4CCN(C)CC4)cc3)c2C)cc(F)c1C(N)=O [Compound 26a, 2-Fluoro-6-methoxy-4-(4-methyl-5-(4-(4-methylpiperazin-1-yl)phenyl)pyridin-3-yl)benzamide] | 93.9% | 98.7% | 65.46% | 94% | 91.72% | 75.2% | 96.2% | 99.7% | 100.43% | 101%
2 | COc1cc(-c2cncc(-c3ccc(N4C[C@@H](C)N(C)[C@@H](C)C4)cc3)c2C)cc(F)c1C(N)=O [Compound 26c, 2-Fluoro-6-methoxy-4-(4-methyl-5-(4-((3R,5S)-3,4,5-trimethylpiperazin-1-yl)phenyl)pyridin-3-yl)benzamide] | 98.8% | 105% | 76.07% | 99.2% | 93.51% | 83.9% | 97.6% | 102% | 100.91% | 98.2%
